pIC50: −log10 of the molar value. Like-named read-outs stand apart in the source and are kept apart here.

Common to all, as to type: biochemical
One assay addresses T1, human Src enzyme (Homo sapiens, UniProt P12931).
T1 construct: purchased Carna Biosciences, Inc. 08-173
In words: Src enzyme inhibitory activity (time-resolved fluorometry, biotinylated peptide phosphorylation). The settings on record: read-out: SRC_IC50. In short, it runs like this:
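Compounds were tested for blocking tyrosine phosphorylation of a biotinylated peptide substrate by recombinant human Src. Phosphorylated product was quantified by time-resolved fluorometry using europium cryptate and XL665 conjugates, and IC50 was calculated against the compound-free control.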

In a further assay the target is T2, human Yes1 enzyme (Homo sapiens, UniProt P07947).
T2 construct: made in house
T2 sequence (P07947 whole entry): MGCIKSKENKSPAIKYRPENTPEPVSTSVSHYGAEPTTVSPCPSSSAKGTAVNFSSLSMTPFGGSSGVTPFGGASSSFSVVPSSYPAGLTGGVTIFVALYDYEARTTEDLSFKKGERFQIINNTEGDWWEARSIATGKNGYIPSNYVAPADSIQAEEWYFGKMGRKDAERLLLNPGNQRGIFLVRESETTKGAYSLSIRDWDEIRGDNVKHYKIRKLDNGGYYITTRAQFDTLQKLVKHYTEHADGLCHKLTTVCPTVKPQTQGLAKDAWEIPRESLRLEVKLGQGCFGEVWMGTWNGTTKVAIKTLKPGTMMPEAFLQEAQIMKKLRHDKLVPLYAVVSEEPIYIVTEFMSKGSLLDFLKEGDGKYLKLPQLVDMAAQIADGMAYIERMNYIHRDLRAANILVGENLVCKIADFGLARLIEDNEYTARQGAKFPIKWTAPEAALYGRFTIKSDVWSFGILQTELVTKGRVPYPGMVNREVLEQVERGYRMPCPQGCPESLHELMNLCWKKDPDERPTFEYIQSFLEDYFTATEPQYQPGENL
Briefly: Yes1 enzyme inhibitory activity (time-resolved fluorometry, biotinylated peptide phosphorylation). The settings on record: read-out: YES_IC50. The essentials:
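Inhibition was expressed against a compound-free control to give IC50, using TR-FRET read-out (Eu-cryptate anti-pTyr antibody, streptavidin-XL665).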

The next assay concerns the target T3, human Lck enzyme (Homo sapiens, UniProt P06239).
T3 construct: purchased Carna Biosciences, Inc. 08-170
In words: Lck enzyme inhibitory activity (time-resolved fluorometry, biotinylated peptide phosphorylation). The settings on record: read-out: LCK_IC50. The essentials: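 Readout pairs a europium cryptate-labelled anti-phosphotyrosine antibody with XL665-streptavidin, measured by time-resolved fluorescence. IC50 derived from percent inhibition against untreated controls.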

Setting [1] is: biotinylated peptide phosphorylation.

T1 sequence (P12931 whole entry): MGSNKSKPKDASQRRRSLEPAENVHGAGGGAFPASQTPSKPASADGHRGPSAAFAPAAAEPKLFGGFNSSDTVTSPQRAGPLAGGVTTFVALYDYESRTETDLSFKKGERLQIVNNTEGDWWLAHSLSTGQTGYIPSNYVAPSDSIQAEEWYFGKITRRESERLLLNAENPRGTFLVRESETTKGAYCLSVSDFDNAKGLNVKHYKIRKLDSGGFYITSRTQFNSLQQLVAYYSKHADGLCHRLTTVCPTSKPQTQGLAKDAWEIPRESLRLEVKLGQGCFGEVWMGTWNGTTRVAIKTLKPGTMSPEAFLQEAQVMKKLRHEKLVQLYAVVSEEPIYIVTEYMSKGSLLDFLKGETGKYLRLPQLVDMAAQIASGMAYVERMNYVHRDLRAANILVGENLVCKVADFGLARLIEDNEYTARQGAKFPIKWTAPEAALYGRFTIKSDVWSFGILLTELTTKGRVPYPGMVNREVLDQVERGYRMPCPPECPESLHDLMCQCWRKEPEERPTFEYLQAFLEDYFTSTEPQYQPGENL
T3 sequence (P06239 whole entry): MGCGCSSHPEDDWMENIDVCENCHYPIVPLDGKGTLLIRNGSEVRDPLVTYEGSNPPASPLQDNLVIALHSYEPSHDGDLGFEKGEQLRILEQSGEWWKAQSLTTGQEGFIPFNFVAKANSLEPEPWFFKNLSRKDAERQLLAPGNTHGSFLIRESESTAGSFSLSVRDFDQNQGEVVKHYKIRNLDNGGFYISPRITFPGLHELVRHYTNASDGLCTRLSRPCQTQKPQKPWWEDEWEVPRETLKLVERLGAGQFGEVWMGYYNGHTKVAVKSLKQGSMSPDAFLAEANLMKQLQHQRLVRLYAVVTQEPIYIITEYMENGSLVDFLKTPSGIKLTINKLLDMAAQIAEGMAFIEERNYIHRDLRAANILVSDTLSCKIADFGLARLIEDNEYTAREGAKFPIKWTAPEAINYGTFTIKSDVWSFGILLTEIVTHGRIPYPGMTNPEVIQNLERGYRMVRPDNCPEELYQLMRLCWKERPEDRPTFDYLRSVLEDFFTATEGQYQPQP

`Cc1cc(Oc2ccccc2F)ccc1-n1ncc(C(=O)c2cc3cc(OCC(F)F)c(N4CCN(S(C)(=O)=O)CC4)cc3[nH]2)c1N` [Example 4-23-005, [5-amino-1-[4-(2-fluorophenoxy)-2-methylphenyl]pyrazol-4-yl]-[5-(2,2-difluoroethoxy)-6-(4-methylsulfonylpiperazin-1-yl)-1H-indol-2-yl]methanone]: the pIC50 on human Src enzyme (setting [1]) is 7.80; on human Yes1 enzyme (setting [1]), 8.77; on human Lck enzyme (setting [1]) it was 8.09.
As for `Nc1c(C(=O)c2cc3cc(F)c(NS(=O)(=O)C4CC4)cc3[nH]2)cnn1-c1c(F)cc(Oc2ccccc2F)cc1F` [Example 5-1-019, N-[2-[5-amino-1-[2,6-difluoro-4-(2-fluorophenoxy)phenyl]pyrazole-4-carbonyl]-5-fluoro-1H-indol-6-yl] cyclopropanesulfonamide], the results for the pIC50 at human Src enzyme, at human Yes1 enzyme and on human Lck enzyme were 6.92, 8.55 and 7.27, respectively.
On to `Cc1cc2cc(C(=O)c3cnn(-c4cnc(Oc5c(F)cccc5F)cc4C)c3N)[nH]c2cc1N1C(=O)NC(C)(C)C1=O` [Example 5-1-286, 3-[2-[5-amino-1-[6-(2,6-difluorophenoxy)-4-methylpyridin-3-yl]pyrazole-4-carbonyl]-5-methyl-1H-indol-6-yl]-5,5-dimethylimidazolidine-2,4-dione], for which the pIC50 at human Src enzyme is 7.52; at human Yes1 enzyme it was 8.64; at human Lck enzyme, 8.28.
`Cc1cc(Oc2ccccc2F)ncc1-n1ncc(C(=O)c2cc3cc(OC(F)F)c(NS(=O)(=O)N4CCOCC4)cc3[nH]2)c1N` [Example 4-22-002, N-[2-[5-amino-1-[6-(2-fluorophenoxy)-4-methylpyridin-3-yl]pyrazole-4-carbonyl]-5-(difluoromethoxy)-1H-indol-6-yl]morpholine-4-sulfonamide]: the pIC50 at human Src enzyme (setting [1]) was 6.62; on human Yes1 enzyme (setting [1]), 8.52; on human Lck enzyme (setting [1]), 7.17.
On to `Cc1cc(Oc2ccccc2F)ccc1-n1ncc(C(=O)c2cc3cc(OC(F)F)c(N4CCCC4=O)cc3[nH]2)c1N` [Example 4-21-006, 1-[2-[5-amino-1-[4-(2-fluorophenoxy)-2-methylphenyl]pyrazole-4-carbonyl]-5-(difluoromethoxy)-1H-indol-6-yl]pyrrolidin-2-one], for which the pIC50 is 7.77 on human Src enzyme (setting [1]), 8.80 on human Yes1 enzyme (setting [1]) and 8.26 at human Lck enzyme (setting [1]).
For the compound `CCN(CC)C(=O)CS(=O)(=O)Nc1cc2[nH]c(C(=O)c3cnn(-c4cnc(Oc5ccccc5F)cc4C)c3N)cc2cc1F` [Example 4-10-001, 2-{{2-{5-amino-1-[6-(2-fluorophenoxy)-4-methylpyridin-3-yl]pyrazole-4-carbonyl}-5-fluoro-1H-indol-6-yl}sulfamoyl}-N,N-diethylacetamide], the pIC50 is 7.07 on human Src enzyme (setting [1]), 8.68 on human Yes1 enzyme (setting [1]) and 7.74 on human Lck enzyme (setting [1]).
On to `Cc1cc(Oc2ccccc2F)cc(F)c1-n1ncc(C(=O)c2cc3cc(OCC(F)F)c(C4CCN(S(=O)(=O)C5CC5)CC4)cc3[nH]2)c1N` [Example 4-17-019, [5-amino-1-[2-fluoro-4-(2-fluorophenoxy)-6-methylphenyl]pyrazol-4-yl]-[6-(1-cyclopropylsulfonylpiperidin-4-yl)-5-(2,2-difluoroethoxy)-1H-indol-2-yl]methanone], for which the results for the pIC50 at human Src enzyme (setting [1]), at human Yes1 enzyme (setting [1]) and on human Lck enzyme (setting [1]) were 7.74, 8.49 and 8.04, respectively.
Take `Cc1cc(Oc2ccccc2F)cc(F)c1-n1ncc(C(=O)c2cc3cc(OC(F)F)c(N4CCN(S(C)(=O)=O)CC4)cc3[nH]2)c1N` [Example 4-23-003, [5-amino-1-[2-fluoro-4-(2-fluorophenoxy)-6-methylphenyl]pyrazol-4-yl]-[5-(difluoromethoxy)-6-(4-methylsulfonylpiperazin-1-yl)-1H-indol-2-yl]methanone]: the pIC50 is 7.21 at human Src enzyme (setting [1]), 8.00 at human Yes1 enzyme (setting [1]) and 7.68 on human Lck enzyme (setting [1]).
For `Cc1cc(Oc2ccccc2F)ccc1-n1ncc(C(=O)c2cc3cc(F)c(NS(=O)(=O)N4CCOCC4)cc3[nH]2)c1N` [Example 4-5-002, N-[2-[5-amino-1-[4-(2-fluorophenoxy)-2-methylphenyl]pyrazole-4-carbonyl]-5-fluoro-1H-indol-6-yl]morpholine-4-sulfonamide], the values for the pIC50 on human Src enzyme (setting [1]), at human Yes1 enzyme (setting [1]) and at human Lck enzyme (setting [1]) were 7.31, 9.12 and 7.64, respectively.
The like results for `CC(C)N1CCC(c2cc3cc(C(=O)c4cnn(-c5ccc(Oc6cccc(F)c6)cc5)c4N)[nH]c3cc2F)CC1` [Example 4-2-006, [5-amino-1-[4-(3-fluorophenoxy)phenyl]pyrazol-4-yl]-[6-fluoro-5-(1-propan-2-ylpiperidin-4-yl)-1H-indol-2-yl]methanone] were, in that order, 7.92, 8.89 and 8.48.
Consider `CS(=O)(=O)Nc1cc2[nH]c(C(=O)c3cnn(-c4ccc(Oc5ccccn5)cc4Cl)c3N)cc2cc1F` [Example 4-1-003, N-[2-[5-amino-1-(2-chloro-4-pyridin-2-yloxyphenyl)pyrazole-4-carbonyl]-5-fluoro-1H-indol-6-yl]methanesulfonamide], for which the values for the pIC50 at human Src enzyme (setting [1]), on human Yes1 enzyme (setting [1]) and at human Lck enzyme (setting [1]) were 7.26, 8.92 and 7.85, respectively.
Take `CC(=O)N1CCC(c2cc3[nH]c(C(=O)c4cnn(-c5ccc(Oc6ccccc6F)cc5C)c4N)cc3cc2OC(F)F)CC1` [Example 4-17-002, 1-[4-[2-[5-amino-1-[4-(2-fluorophenoxy)-2-methylphenyl]pyrazole-4-carbonyl]-5-(difluoromethoxy)-1H-indol-6-yl]piperidin-1-yl]ethanone]: the pIC50 was 7.37 on human Src enzyme (setting [1]), 8.00 on human Yes1 enzyme (setting [1]) and 7.74 on human Lck enzyme (setting [1]).
Turning to `Cc1cc(Oc2ccccc2F)ccc1-n1ncc(C(=O)c2cc3cc(OCC(F)F)c(N4C(=O)NC5(CCNC5)C4=O)cc3[nH]2)c1N` (stereo not drawn) [Example 5-1-349, 3-[2-[5-amino-1-[4-(2-fluorophenoxy)-2-methylphenyl]pyrazole-4-carbonyl]-5-(2,2-difluoroethoxy)-1H-indol-6-yl]-1,3,7-triazaspiro [4.4]nonane-2,4-dione], the pIC50 is 8.16 on human Src enzyme, 9.29 on human Yes1 enzyme and 8.60 at human Lck enzyme.
Take `Cc1cc(Oc2ccccc2F)cc(F)c1-n1ncc(C(=O)c2cc3cc(OCC(F)F)c(NS(C)(=O)=O)cc3[nH]2)c1N` [Example 4-24-025, N-[2-[5-amino-1-[2-fluoro-4-(2-fluorophenoxy)-6-methylphenyl]pyrazole-4-carbonyl]-5-(2,2-difluoroethoxy)-1H-indol-6-yl]methanesulfonamide]: the pIC50 at human Src enzyme (setting [1]) is 7.23; on human Yes1 enzyme (setting [1]) it was 8.80; at human Lck enzyme (setting [1]), 7.89.
Take `Cc1cc(Oc2c(F)cccc2F)ncc1-n1ncc(C(=O)c2cc3cc(F)c(N4CCCC4=O)cc3[nH]2)c1N` [Example 5-1-098, 1-[2-[5-amino-1-[6-(2,6-difluorophenoxy)-4-methylpyridin-3-yl]pyrazole-4-carbonyl]-5-fluoro-1H-indol-6-yl]pyrrolidin-2-one]: the pIC50 on human Src enzyme was 7.82; at human Yes1 enzyme it was 8.72; at human Lck enzyme, 8.85.
For `Cc1cc(Oc2c(F)cccc2F)ncc1-n1ncc(C(=O)c2cc3cc(OC4CCN(CCO)CC4)c(Br)cc3[nH]2)c1N` [Example 5-1-226, [5-amino-1-[6-(2,6-difluorophenoxy)-4-methylpyridin-3-yl]pyrazol-4-yl]-[6-bromo-5-[1-(2-hydroxyethyl)piperidin-4-yl]oxy-1H-indol-2-yl]methanone], the pIC50 is 8.48 at human Src enzyme, 9.47 at human Yes1 enzyme and 8.70 on human Lck enzyme.
Regarding `Cc1cc2cc(C(=O)c3cnn(-c4cnc(Oc5ccccc5F)cc4C)c3N)[nH]c2cc1NS(=O)(=O)c1cccc(F)n1` [Example 5-1-502, N-[2-[5-amino-1-[6-(2-fluorophenoxy)-4-methylpyridin-3-yl]pyrazole-4-carbonyl]-5-methyl-1H-indol-6-yl]-6-fluoropyridine-2-sulfonamide], the pIC50 was 6.46 on human Src enzyme (setting [1]), 8.64 on human Yes1 enzyme (setting [1]) and 6.96 on human Lck enzyme (setting [1]).
For the compound `Cc1cc(-n2ncc(C(=O)c3cc4cc(OC5CCN(C(C)C)CC5)c(N5C(=O)N[C@@H](C(C)C)C5=O)cc4[nH]3)c2N)ccc1Oc1ccccc1F` [Example 5-1-295, (5S)-3-[2-[5-amino-1-[4-(2-fluorophenoxy)-3-methylphenyl]pyrazole-4-carbonyl]-5-(1-propan-2-ylpiperidin-4-yl)oxy-1H-indol-6-yl]-5-propan-2-ylimidazolidine-2,4-dione], the values for the pIC50 on human Src enzyme, on human Yes1 enzyme and on human Lck enzyme were 6.15, 8.82 and 7.19, respectively.
In the case of `Cc1cc(Oc2cccc(F)c2F)ncc1-n1ncc(C(=O)c2cc3cc(F)c(NS(=O)(=O)C4CC4)cc3[nH]2)c1N` [Example 4-2-045, N-[2-[5-amino-1-[6-(2,3-difluorophenoxy)-4-methylpyridin-3-yl]pyrazole-4-carbonyl]-5-fluoro-1H-indol-6-yl]cyclopropanesulfonamide], the pIC50 on human Src enzyme (setting [1]) is 6.64; on human Yes1 enzyme (setting [1]) it was 8.31; on human Lck enzyme (setting [1]) it was 7.05.
In the case of `Cc1cc(Oc2c(F)cccc2F)ncc1-n1ncc(C(=O)c2cc3cc(C(C)C)c(NS(=O)(=O)N4C5CCC4COC5)cc3[nH]2)c1N` [Example 5-1-303, N-[2-[5-amino-1-[6-(2,6-difluorophenoxy)-4-methylpyridin-3-yl]pyrazole-4-carbonyl]-5-propan-2-yl-1H-indol-6-yl]-3-oxa-8-azabicyclo [3.2.1]octane-8-sulfonamide], the pIC50 on human Src enzyme is 5.82; on human Yes1 enzyme, 7.57; on human Lck enzyme it was 6.49.

Source of the values: patent US10479780B2, “Aminopyrazole derivatives” (Chugai Seiyaku Kabushiki Kaisha, priority 2015, dated 2019).
